Here are results for four cell lines from the supplement of paper PMC10307832.

What all share (test): relative viability (nuclei count vs DMSO), 5 days (fraction); higher = more cells survive
Compound in assay [1]: CC1CC(=O)N(C2=CN=C(N=C2N1C3CCCC3)NC4=C(C=C(C=C4)C(=O)NC5CCN(CC5)C)OC)C [NPK76-II-72-1] + Cc1cc(Nc2cc(N3CCN(C)CC3)nc(Sc3ccc(NC(=O)C4CC4)cc3)n2)n[nH]1 [Tozasertib] (partner 0.1 µM)
An outline of the steps:
(§1)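 Five library-drug doses in √10 steps were combined with a fixed anchor-drug dose, or a single drug was given alone, by pin tool to lung cancer cell lines in 1536-well plates the day after seeding. Nuclei were stained and counted after 5 days. Relative viability is the nuclei count in treated wells over that in vehicle wells, taken as the median of duplicate plates.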

Compound in the assay “BI-2536 + Bortezomib”: CC[C@@H]1C(=O)N(C)c2cnc(Nc3ccc(C(=O)NC4CCN(C)CC4)cc3OC)nc2N1C1CCCC1 [BI-2536] + CC(C)C[C@H](NC(=O)[C@H](Cc1ccccc1)NC(=O)c1cnccn1)B(O)O [Bortezomib] (partner 0.002 µM)
An outline of the steps:
as §1

Compound in the assay “BI-2536 + Foretinib”: CC[C@@H]1C(=O)N(C)c2cnc(Nc3ccc(C(=O)NC4CCN(C)CC4)cc3OC)nc2N1C1CCCC1 [BI-2536] + COc1cc2c(Oc3ccc(NC(=O)C4(C(=O)Nc5ccc(F)cc5)CC4)cc3F)ccnc2cc1OCCCN1CCOCC1 [Foretinib] (partner 0.25 µM)
An outline of the steps: as §1

Compound in the assay “BI-2536 + Linsitinib”: CC[C@@H]1C(=O)N(C)c2cnc(Nc3ccc(C(=O)NC4CCN(C)CC4)cc3OC)nc2N1C1CCCC1 [BI-2536] + C[C@]1(O)C[C@@H](c2nc(-c3ccc4ccc(-c5ccccc5)nc4c3)c3c(N)nccn32)C1 [Linsitinib] (partner 1 µM)
An outline of the steps:
as §1

In the case of HCC-78, the relative viability in assay [1] (first compound 0.01 µM) amounted to 0.446; in assay [1] (first compound 0.03162 µM), 0.407; in assay [1] (first compound 0.1 µM) it was 0.408; in assay [1] (first compound 0.3162 µM), 0.368; in assay [1] (first compound 1 µM) it was 0.429; with BI-2536 + Bortezomib (first compound 0.01 µM), 0.505. In addition, the relative viability with BI-2536 + Bortezomib (first compound 0.03162 µM) was 0.559; with BI-2536 + Bortezomib (first compound 0.1 µM), 0.487; in the assay with BI-2536 + Bortezomib (first compound 0.3162 µM) it was 0.352; with BI-2536 + Bortezomib (first compound 1 µM) it was 0.219; with BI-2536 + Foretinib (first compound 0.01 µM), 0.554; with BI-2536 + Foretinib (first compound 0.03162 µM), 0.505. In addition, the relative viability with BI-2536 + Foretinib (first compound 0.1 µM) is 0.534; with BI-2536 + Foretinib (first compound 0.3162 µM) it was 0.402; with BI-2536 + Foretinib (first compound 1 µM), 0.226; with BI-2536 + Linsitinib (first compound 0.01 µM), 0.613; in the assay with BI-2536 + Linsitinib (first compound 0.03162 µM) it was 0.481; with BI-2536 + Linsitinib (first compound 0.1 µM) it was 0.511. Moreover, the results for the relative viability in the assay with BI-2536 + Linsitinib (first compound 0.3162 µM) and with BI-2536 + Linsitinib (first compound 1 µM) were 0.52 and 0.207, respectively.

In the case of NCI-H1755, the relative viability was 0.669 in assay [1] (first compound 0.01 µM); 0.663 in assay [1] (first compound 0.03162 µM); 0.526 in assay [1] (first compound 0.1 µM); 0.552 in assay [1] (first compound 0.3162 µM); 0.653 in assay [1] (first compound 1 µM); 0.9 in the assay with BI-2536 + Bortezomib (first compound 0.01 µM). Also, the relative viability turned out to be 0.891 with BI-2536 + Bortezomib (first compound 0.03162 µM); 0.355 with BI-2536 + Bortezomib (first compound 0.1 µM); 0.308 with BI-2536 + Bortezomib (first compound 0.3162 µM); 0.262 with BI-2536 + Bortezomib (first compound 1 µM); 0.949 with BI-2536 + Foretinib (first compound 0.01 µM); 0.819 with BI-2536 + Foretinib (first compound 0.03162 µM). The relative viability came out at 0.618 with BI-2536 + Foretinib (first compound 0.1 µM); 0.27 with BI-2536 + Foretinib (first compound 0.3162 µM); 0.292 in the assay with BI-2536 + Foretinib (first compound 1 µM); 1.03 with BI-2536 + Linsitinib (first compound 0.01 µM); 0.992 in the assay with BI-2536 + Linsitinib (first compound 0.03162 µM); 0.971 with BI-2536 + Linsitinib (first compound 0.1 µM). Moreover, the relative viability was 0.455 in the assay with BI-2536 + Linsitinib (first compound 0.3162 µM) and 0.272 with BI-2536 + Linsitinib (first compound 1 µM).

As to NCI-H3122, the relative viability in assay [1] (first compound 0.01 µM) came out at 0.389; in assay [1] (first compound 0.03162 µM), 0.425; in assay [1] (first compound 0.1 µM), 0.366; in assay [1] (first compound 0.3162 µM), 0.365; in assay [1] (first compound 1 µM) it was 0.465; in the assay with BI-2536 + Bortezomib (first compound 0.01 µM), 0.982. For the same cell line, the relative viability in the assay with BI-2536 + Bortezomib (first compound 0.03162 µM) stood at 1.01; in the assay with BI-2536 + Bortezomib (first compound 0.1 µM), 0.43; in the assay with BI-2536 + Bortezomib (first compound 0.3162 µM), 0.231; with BI-2536 + Bortezomib (first compound 1 µM), 0.242; in the assay with BI-2536 + Foretinib (first compound 0.01 µM) it was 0.969; in the assay with BI-2536 + Foretinib (first compound 0.03162 µM) it was 0.916. Moreover, the relative viability in the assay with BI-2536 + Foretinib (first compound 0.1 µM) turned out to be 0.488; with BI-2536 + Foretinib (first compound 0.3162 µM), 0.122; in the assay with BI-2536 + Foretinib (first compound 1 µM), 0.118; with BI-2536 + Linsitinib (first compound 0.01 µM) it was 1.03; with BI-2536 + Linsitinib (first compound 0.03162 µM), 1.06; in the assay with BI-2536 + Linsitinib (first compound 0.1 µM), 1.01. For the same cell line, the relative viability amounted to 0.184 with BI-2536 + Linsitinib (first compound 0.3162 µM) and 0.224 with BI-2536 + Linsitinib (first compound 1 µM).

With PC-14, the relative viability was found to be 0.577 in assay [1] (first compound 0.01 µM); 0.609 in assay [1] (first compound 0.03162 µM); 0.594 in assay [1] (first compound 0.1 µM); 0.564 in assay [1] (first compound 0.3162 µM); 0.699 in assay [1] (first compound 1 µM); 0.851 with BI-2536 + Bortezomib (first compound 0.01 µM). For the same cell line, the relative viability in the assay with BI-2536 + Bortezomib (first compound 0.03162 µM) worked out at 0.835; with BI-2536 + Bortezomib (first compound 0.1 µM), 0.665; with BI-2536 + Bortezomib (first compound 0.3162 µM), 0.0691; with BI-2536 + Bortezomib (first compound 1 µM), 0.0558; with BI-2536 + Foretinib (first compound 0.01 µM), 0.961; with BI-2536 + Foretinib (first compound 0.03162 µM), 0.93. Moreover, the relative viability was found to be 0.895 with BI-2536 + Foretinib (first compound 0.1 µM); 0.0827 in the assay with BI-2536 + Foretinib (first compound 0.3162 µM); 0.0753 with BI-2536 + Foretinib (first compound 1 µM); 0.988 with BI-2536 + Linsitinib (first compound 0.01 µM); 0.987 in the assay with BI-2536 + Linsitinib (first compound 0.03162 µM); 0.943 in the assay with BI-2536 + Linsitinib (first compound 0.1 µM). For the same cell line, the relative viability in the assay with BI-2536 + Linsitinib (first compound 0.3162 µM) turned out to be 0.727; with BI-2536 + Linsitinib (first compound 1 µM), 0.0823.
